One assay has as its system Platelet. In words: Inhibition of platelet (unknown origin) aggregation. Type of assay: functional, cell-based.
In another assay the test system is KB. The assay is described as follows: Anticancer activity against human KB cells. Type of assay: functional, cell-based.
Assay [1] deals with Human immunodeficiency virus. The assay is described as follows: Antiviral activity against Human immunodeficiency virus. Type of assay: functional, organism-based. As to conditions: Human immunodeficiency virus 1.
For another assay, the system named is Staphylococcus aureus. In words: Antimicrobial activity against methicillin-resistant Staphylococcus aureus. Type of assay: functional.
For the next assay, the system named is SK-OV-3. In words: Growth inhibition of human SKOV3 cells at 50 uM. As to conditions: read-out: GI. Type of assay: functional.
The subject of the next assay is MCF7. In words: Growth inhibition of human MCF7 cells at 50 uM. As to conditions: read-out: GI. Type of assay: functional.
The target of assay [2] is Proto-oncogene tyrosine-protein kinase Src (Homo sapiens, UniProt P12931). In words: Inhibition of Src kinase (unknown origin).
Proto-oncogene tyrosine-protein kinase Src, sequence (P12931 2-536 limits assumed): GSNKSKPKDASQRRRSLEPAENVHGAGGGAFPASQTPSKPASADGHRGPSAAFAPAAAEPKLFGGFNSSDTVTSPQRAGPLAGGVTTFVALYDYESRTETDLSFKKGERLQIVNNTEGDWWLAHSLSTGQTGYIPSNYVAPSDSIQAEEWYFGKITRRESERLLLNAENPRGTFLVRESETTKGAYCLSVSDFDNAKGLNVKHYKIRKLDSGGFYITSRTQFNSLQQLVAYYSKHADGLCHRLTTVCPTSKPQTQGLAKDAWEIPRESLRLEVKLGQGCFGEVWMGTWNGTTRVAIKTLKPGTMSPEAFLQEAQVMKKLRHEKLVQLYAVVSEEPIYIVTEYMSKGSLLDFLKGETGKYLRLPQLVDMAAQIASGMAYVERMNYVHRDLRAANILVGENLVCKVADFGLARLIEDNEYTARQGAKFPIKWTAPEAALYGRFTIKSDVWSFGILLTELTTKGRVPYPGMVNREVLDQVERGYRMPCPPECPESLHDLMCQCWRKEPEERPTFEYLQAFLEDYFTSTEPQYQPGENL
The next assay has as its system CCRF-CEM. In words: Growth inhibition of human CCRF-CEM cells at 50 uM. Type of assay: functional. As to conditions: read-out: GI.
Assay [3] addresses T1, Cholinesterase (Homo sapiens, UniProt P06276). In words: Ratio of galamthamine IC50 to compound IC50 for BuChE (unknown origin).
The target in assay [4] is T1, Cholinesterase. In words: Inhibition of BuChE (unknown origin).
The target of another assay is Acetylcholinesterase (Homo sapiens, UniProt P22303). The assay is described as follows: Inhibition of AChE (unknown origin).
Acetylcholinesterase, sequence (P22303 whole entry): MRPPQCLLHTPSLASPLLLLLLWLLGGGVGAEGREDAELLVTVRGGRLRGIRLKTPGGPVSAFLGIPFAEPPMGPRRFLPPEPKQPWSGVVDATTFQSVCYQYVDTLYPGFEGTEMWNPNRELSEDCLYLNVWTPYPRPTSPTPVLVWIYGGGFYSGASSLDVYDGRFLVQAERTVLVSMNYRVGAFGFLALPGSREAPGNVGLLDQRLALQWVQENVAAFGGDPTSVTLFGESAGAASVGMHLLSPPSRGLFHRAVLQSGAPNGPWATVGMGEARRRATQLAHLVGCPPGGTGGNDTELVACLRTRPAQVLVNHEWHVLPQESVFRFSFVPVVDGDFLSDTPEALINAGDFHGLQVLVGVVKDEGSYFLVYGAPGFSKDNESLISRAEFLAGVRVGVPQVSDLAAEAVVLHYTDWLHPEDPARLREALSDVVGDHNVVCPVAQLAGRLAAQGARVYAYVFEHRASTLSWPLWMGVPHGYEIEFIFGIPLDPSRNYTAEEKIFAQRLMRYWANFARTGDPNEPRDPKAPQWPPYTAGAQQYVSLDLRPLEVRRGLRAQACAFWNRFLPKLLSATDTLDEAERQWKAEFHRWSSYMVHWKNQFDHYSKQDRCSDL
Assay [5] deals with Human immunodeficiency virus 1. In words: Antiviral activity against Human immunodeficiency virus 1 harboring reverse transcriptase K103N/Y181C double mutant. Type of assay: functional, organism-based.
Assay [6] concerns Human immunodeficiency virus 1. In words: Antiviral activity against Human immunodeficiency virus 1 3B. Type of assay: functional, organism-based.
The test system of assay [7] is Human immunodeficiency virus 2. The assay is described as follows: Antiviral activity against Human immunodeficiency virus 2 ROD. Type of assay: functional, organism-based. As to conditions: Human immunodeficiency virus 2, ISOLATE ROD.

≈ marks a conversion by molar mass, not a printed value.

T1 sequence (P06276 whole entry): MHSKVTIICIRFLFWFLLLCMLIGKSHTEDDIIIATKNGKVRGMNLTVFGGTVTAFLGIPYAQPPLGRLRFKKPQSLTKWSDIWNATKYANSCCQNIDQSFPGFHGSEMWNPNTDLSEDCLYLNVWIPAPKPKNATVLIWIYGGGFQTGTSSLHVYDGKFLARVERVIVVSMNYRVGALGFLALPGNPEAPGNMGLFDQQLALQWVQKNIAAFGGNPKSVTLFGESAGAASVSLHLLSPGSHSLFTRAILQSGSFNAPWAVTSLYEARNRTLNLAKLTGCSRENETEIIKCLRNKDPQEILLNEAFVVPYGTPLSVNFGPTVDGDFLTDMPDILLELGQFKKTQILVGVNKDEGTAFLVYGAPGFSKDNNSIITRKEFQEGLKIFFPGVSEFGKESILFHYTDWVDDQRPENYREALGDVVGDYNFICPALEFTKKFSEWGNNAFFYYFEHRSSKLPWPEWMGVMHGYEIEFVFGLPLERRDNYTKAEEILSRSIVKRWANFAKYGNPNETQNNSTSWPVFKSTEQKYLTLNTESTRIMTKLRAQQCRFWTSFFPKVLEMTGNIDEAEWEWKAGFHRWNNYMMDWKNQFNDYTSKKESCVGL

The molecule `O=c1oc2ccc(O)cc2cc1-c1cc(O)cc(O)c1` came in with an IC50 in the assay on Platelet of 10.6 µM. This counts as double-digit micromolar.
The molecule `COc1cc(OC)cc(-c2cc3ccc(OC(C)=O)c(OC(C)=O)c3oc2=O)c1` registered a 50% inhibitory concentration (IC50) in the assay on KB of 5180 µM.
As to `O=c1oc2ccccc2cc1CSc1nc2cncnc2[nH]1`, the midpoint of the response in assay [1], the EC50, lay at 2 µM.
As to `O=c1oc2ccccc2cc1CSc1nc2ccccc2o1`, a half-maximal effect in [1] (EC50) was put at 12 µM.
Take `O=c1oc2ccccc2c(O)c1-c1csc(Nc2cccc([N+](=O)[O-])c2)n1`: the MIC in the assay with Staphylococcus aureus turned out to be 31.2 µg/mL (≈ 81.9 µM).
`COc1ccc(/C=C/C(=O)c2c(O)ccc3c(C)cc(=O)oc23)cc1O`: the inhibition of growth at 50 µM in the assay with SK-OV-3 came out at 63%; in the assay on MCF7, 43%; with CCRF-CEM, 50%. In assay [2], this molecule showed an IC50 of 14.5 µM.
In the case of `O=c1oc2ccccc2cc1CSc1nc2cccnc2[nH]1`, in [1], the response was half-maximal at 6.8 µM (EC50). This lies in the single-digit micromolar range.
On to `Cc1cc(=O)oc2cc(OCCCCCCCN3CCN(CC(=O)Nc4c5c(nc6ccccc46)CCCC5)CC3)ccc12`, for which the Ratio IC50 on Cholinesterase [3] was found to be 128. Also, the half-maximal inhibitory concentration (IC50) against Cholinesterase [4] stood at 0.099 µM.
For `Cc1cc(=O)oc2cc(OCc3cn(Cc4cc(=O)oc5ccc(Cl)cc45)nn3)ccc12`, 6.25 µg/mL (≈ 13.9 µM) was the least that counted as inhibitory in the assay with Staphylococcus aureus (MIC).
Molecule `Cc1cc(=O)oc2cc(OCCN3CCN(CC(=O)Nc4c5c(nc6ccccc46)CCCC5)CC3)ccc12` came in with an IC50 on Acetylcholinesterase of 0.092 µM. In other words, the double-digit nanomolar range.
For `CCOC(=O)CNc1nc(Nc2ccc(C)cc2)nc(OCc2cc3ccccc3oc2=O)n1`, the IC50 in assay [5], in assay [6] and in assay [7] was 1 µg/mL (≈ 2.17 µM) throughout.

A word on the IC50: it is the concentration at which inhibition is half-maximal. One may read the EC50 as the midpoint of the concentration-response curve. A low value points to an effect from little substance. One may read the MIC as the lowest concentration found to suppress growth. A lower MIC goes with greater potency.

The record behind these values is ChEMBL document CHEMBL3351862, “Coumarin hybrids as novel therapeutic agents” (Bioorg Med Chem, 2014).
